Measured values from US20060019312A1, “CIS-interactions between MHC molecules and co-expressed proteins, related neurological and non-neurological disorders and related therapeutic/diagnostic utilities” (priority 2004, published 2006).

Test system: GluR1 / MHC class I (b2m)
Experiment: Co-immunoprecipitation of GluR1 with anti-b2m antibodies from brain slices, Western blot with anti-GluR1
Format: cell-based, mouse
Conditions: NMDA 40 micromolar in ACSF, 3 minutes, 30 min wash
Protocol: FIG. 6 is a representation of a Western blot which illustrates that the NMDA-dependent Glutamate receptor co-immunoprecipitates with an MHC Class I molecule; 400-micron-thick slices of adult mouse brain (wild type or b2m-/-TAP-/- [MHC class I-deficient]) were cut and allowed to recover in oxygenated (95% O2, 5% CO2) artifical cerebro-spinal fluid (ACSF) for 1 hour at room temperature; a subset of slices were then transferred to a recording chamber and allowed to recover for 40 min in flowing oxygenated ACSF (2 ml/minute); these slices were treated with NMDA (40 micromolar in ACSF, 3 minutes) and then washed for 30 min in oxygenated ACSF; at this time, all slices (treated and untreated) were homogenized as below and processed for immunoprecipitation with antibodies against b2m, IgG, or GluR1, and the resulting precipitates were probed in Western blots with antibodies against GluR1.
Hippocampal slice (400 um) samples were prepared by homogenizing tissue in NP40 Lysis buffer (50 mM Tris, 150 mM NaCl, 1 mM EDTA, 1% NP40, pH 7.6) with protease inhibitors (1 ug/mL aprotinin, 1 ug/mL leupeptin, 1 ug/mL pepstatin, 1 mM Na orthovanadate, 1 mM PMSF, phosphatase inhibitor cocktail sigma, 1:100). After letting the tissue sit on ice for 15 min., samples were centrifuged at 13,000 rpm, 4°, for 10 min. […]

Structure (SMILES): CN[C@H](CC(=O)O)C(=O)O [NMDA]
- co-immunoprecipitation of GluR1 with anti-b2m antibodies (MHC-deficient (b2m-/- TAP-/-; KO) adult mouse brain slices): fails to induce coimmunoprecipitation of GluR1
- co-immunoprecipitation of GluR1 with antibodies against the light chain of MHC class I (b2m) (WT adult mouse brain slices): co-precipitates GluR1 only after NMDA treatment
